These results are taken from PubChem BioAssay (NCI).

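Five compound concentrations were applied to cells in 96-well plates for 48 hours; endpoints were derived by simple linear interpolation of the resulting dose-response curve. TGI: total growth inhibition.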

Some test systems named below: SF-539 CNS; TK-10 renal; RXF 393 renal.
Assay in all cases: NCI-60 cell line screen, 48 h

For the molecule `CC1(C)CN=C(Nc2ccc(F)c(F)c2)S1`, the TGI in the test with SF-539 CNS, in the test on TK-10 renal and with RXF 393 renal was over 100 µM throughout.

For the molecule `CC(=O)O[C@@H]1O[Si](C(C)(C)C)(C(C)(C)C)[C@H](C)[C@H]1C`, the TGI in the test on SF-539 CNS and with TK-10 renal was over 100 µM each time.

Take `O=c1[nH]c(=O)n(C/C=C/CBr)nc1Br`: the TGI in the test on SF-539 CNS is 27.7 µM; with TK-10 renal it was 31.7 µM; in the test on RXF 393 renal, 25.4 µM.

Take `Cc1ccc(-c2cc(-c3c(C)nn(C)c(=O)c3N)[nH]n2)cc1`: the TGI in the test with SF-539 CNS, with TK-10 renal and in the test with RXF 393 renal was over 100 µM throughout.

On to `Cc1cc(C)n(C(=O)CSc2nnc(SCC(=O)n3nc(C)cc3C)s2)n1`, for which the TGI with SF-539 CNS, in the test with TK-10 renal and in the test with RXF 393 renal was over 100 µM each time.

For `COC(=O)c1cc(C)n(CN(Cc2ccccc2)Cn2nc(C(=O)OC)cc2C)n1`, the TGI is over 68.7 µM in the test with SF-539 CNS, over 100 µM in the test on TK-10 renal and 98 µM in the test with RXF 393 renal.

On to `CCC(=O)NCCc1c2c3c(ccnc3c3ncsc13)-c1ccccc1N2`, for which the TGI was 7.52 µM in the test with SF-539 CNS, over 100 µM in the test with TK-10 renal and over 100 µM with RXF 393 renal.

In the case of `CN(C)c1ccc(C(=NN)c2ccc(N(C)C)cc2)cc1`, the TGI with TK-10 renal is 3.66 µM; with RXF 393 renal, over 32.7 µM.

As for `COc1ccc2c(-c3ccc(O)cc3)c(Oc3ccc(Cl)cc3)c(=O)oc2c1`, the TGI in the test on SF-539 CNS was 28.8 µM; in the test with TK-10 renal, over 22.7 µM; in the test on RXF 393 renal it was 25 µM.

On to `CCN(CC)C(=S)SS(=O)(=O)c1ccccc1[N+](=O)[O-]`, for which the TGI was 34.1 µM in the test with SF-539 CNS, over 90.3 µM in the test with TK-10 renal and 45.4 µM with RXF 393 renal.

Regarding `COc1ccccc1NC(=S)Nc1cc(C)ccn1`, the TGI in the test with SF-539 CNS, in the test on TK-10 renal and in the test on RXF 393 renal was over 100 µM throughout.

As for `C=C1CC(CN2CCC(=O)NC2=O)(c2ccccc2)OC1=O` (stereo not drawn), the TGI in the test with SF-539 CNS turned out to be 28.4 µM; in the test on TK-10 renal, 19.1 µM.

For the molecule `O=C(Nc1nc(C23CC4CC(CC(C4)C2)C3)cs1)c1cc2c(ccc3ccccc32)oc1=O`, the TGI with SF-539 CNS and in the test on TK-10 renal was over 100 µM each time.

Take `Cn1c(-c2ccc(N=NNc3ccc(-c4n[nH]c(=S)n4C)cc3)cc2)n[nH]c1=S`: the TGI was over 100 µM with TK-10 renal and 32.6 µM with RXF 393 renal.

As for `CC(=O)OCC(OC(C)=O)C(OC(C)=O)C(OC(C)=O)C(/C=N\Nc1nc2ccccc2c(=O)[nH]1)=N/Nc1nc2ccccc2c(=O)[nH]1` (stereo not drawn), the TGI with SF-539 CNS and in the test on RXF 393 renal was over 100 µM throughout.

`O=C1/C(=C/c2cccs2)NC(=S)N1CN1CCCC(CO)C1` (stereo not drawn) returned a TGI in the test on TK-10 renal of over 100 µM.

For the molecule `CC(=O)N=C1N(/C=C2\C(=O)Oc3ccccc3C2=O)C(=O)/C(=C/c2ccccc2Cl)N1C`, the TGI with SF-539 CNS and with RXF 393 renal was over 100 µM throughout.

Turning to `CC(O[Si](c1ccccc1)(c1ccccc1)C(C)(C)C)[C@H](NC(=O)OC(C)(C)C)C(=O)O` (stereo partly drawn), the TGI in the test with TK-10 renal and in the test on RXF 393 renal was over 100 µM throughout.

As for `CN(C)CCCNC(=O)c1cc(NC(=O)c2cc(NC(=O)[C@@H]3C[C@H]3C(=O)Nc3cc(C(=O)Nc4cc(C(=O)NCCCN(C)C)n(C)c4)n(C)c3)cn2C)cn1C`, in the test on SF-539 CNS, the TGI is over 100 µM.

In the case of `Cc1ccc(C)n1-n1c(-c2ccccc2)n[nH]c1=O`, the TGI with TK-10 renal and in the test with RXF 393 renal was over 100 µM throughout.

For `O=C(Nn1cnn2c(=O)c3ccccc3nc2c1=O)c1ccccc1`, the TGI in the test with SF-539 CNS and with TK-10 renal was over 100 µM throughout.

Turning to `C=CCn1cnc2c(=O)[nH]c(Nc3ccccc3)nc21`, the TGI with SF-539 CNS and in the test with TK-10 renal was over 100 µM in each case.

Consider `C=C1CC(COc2ccc3c(C)cc(=O)oc3c2)(c2ccccc2)OC1=O` (stereo not drawn), for which the TGI amounted to 5.05 µM with SF-539 CNS and 3.42 µM with TK-10 renal.

As to `Oc1ccc(-c2cn3cc(C(F)(F)F)ccc3n2)cc1`, the TGI in the test with TK-10 renal and with RXF 393 renal was over 100 µM each time.

`O=C(O)CCC(NC(=O)c1ccc(CNc2nc3ccccc3nc2C(=O)O)cc1)C(=O)O` (stereo not drawn): the TGI in the test with TK-10 renal is over 100 µM.

For the molecule `CCOC(=O)c1[nH]c2nc(SC)nc(Nc3ccccc3Cl)c2c1N`, the TGI came out at 56.3 µM in the test on TK-10 renal and 30.2 µM in the test on RXF 393 renal.

Consider `CCOC(=O)NC(=S)c1ccc(O)c2ccccc12`, for which the TGI in the test on SF-539 CNS is over 100 µM.

Regarding `Cc1cc2c(cc1C)C(=O)/C(=N/Nc1ccc(F)cc1)CCO2`, the TGI in the test on SF-539 CNS and with TK-10 renal was over 100 µM in each case.

Consider `COc1ccc2nc3n(c2c1)C(c1c(Cl)cccc1Cl)SC3` (stereo not drawn), for which the TGI in the test on TK-10 renal and with RXF 393 renal was over 100 µM each time.
